The test system of this test is Plasmodium berghei. Put plainly: Luciferase/luciferin-expressing antifolate-resistant parasites were used to infect a culture of HepG2 cells that were pre-incubated with compounds. Infected hepatocytes emit light due to the luciferase reaction. Assay results are presented as the percent inhibition of light emission compared to control. […]. It is filed as functional. The following applies: sporozoite; for IC90: read-out: LUCIFERASE INFECTION ASSAY - IC90.

Structures are written as SMILES. A value given as a limit tells only on which side of the number the result lay.

Among the data in ChEMBL document CHEMBL4483862, “Open-source discovery of chemical leads for next-generation chemoprotective antimalarials” (2018) are IC50 and IC90 values, retold here.

For `COc1ccc(CCN2C(=O)C=CC2=O)cc1OC`, the IC90 is 5.29 µM. In addition, for the setting “FFLUC_HILL_SLOPE 0.51, FFLUC_R_SQUARED 0.0256, HEPG2TOX_HILL_SLOPE 14.8, HEPG2TOX_R_SQUARED 0.93, PBLUC_HILL_SLOPE 12.3, PBLUC_R_SQUARED 0.48, read-out: LUCIFERASE INFECTION ASSAY - IC50”, the IC50 amounted to 4.42 µM.

`Cc1cc(C)n(-c2ccc(S(N)(=O)=O)cc2)n1`: the IC90 is above 13.1 µM. Moreover, under “FFLUC_HILL_SLOPE 0.55, FFLUC_R_SQUARED 0.0304, read-out: LUCIFERASE INFECTION ASSAY - IC50”, the IC50 is above 13.1 µM.

For the compound `Cc1ccnc(NC(=O)c2ccc(C3SCCCS3)cc2)c1`, the IC90 came to 1.57 µM. Besides, the IC50 (FFLUC_HILL_SLOPE 0.47, FFLUC_R_SQUARED 0.912, PBLUC_HILL_SLOPE 0.485, PBLUC_R_SQUARED 0.898, read-out: LUCIFERASE INFECTION ASSAY - IC50) came out at 0.0169 µM.

Turning to `CC(NS(=O)(=O)c1ccc(-n2ncc(Cl)c(Cl)c2=O)cc1)c1ccc2ccccc2c1` (stereo unspecified), the IC90 worked out at 3.82 µM. In addition, the IC50 (FFLUC_HILL_SLOPE 0.605, FFLUC_R_SQUARED 0.525, HEPG2TOX_HILL_SLOPE 11.4, HEPG2TOX_R_SQUARED 0.983, PBLUC_HILL_SLOPE 12.9, PBLUC_R_SQUARED 0.58, read-out: LUCIFERASE INFECTION ASSAY - IC50) amounted to 3.22 µM.

Consider `CCOC(=O)C1=C(C)N(c2ccc(Cl)cc2)C(=O)NC1c1c(F)cccc1Cl` (stereo unspecified), for which the IC90 was above 10 µM. Moreover, under “FFLUC_HILL_SLOPE 0.633, FFLUC_R_SQUARED 0.184, HEPG2TOX_HILL_SLOPE 1.11, HEPG2TOX_R_SQUARED 0.991, PBLUC_HILL_SLOPE 1.36, PBLUC_R_SQUARED 0.55, read-out: LUCIFERASE INFECTION ASSAY - IC50”, the IC50 came out at 3.38 µM.

As to `CC12C/C(=C\c3ccccc3)C(O)CC1CCC1C2CCC2(C)C1CC[C@]2(C)O` (stereo partly specified), the IC90 is above 8.36 µM. Moreover, under “FFLUC_HILL_SLOPE 0.541, FFLUC_R_SQUARED 0.353, PBLUC_HILL_SLOPE 12.3, PBLUC_R_SQUARED 0.0329, read-out: LUCIFERASE INFECTION ASSAY - IC50”, the IC50 is above 8.36 µM.

Turning to `NC(=O)NC(CC(=O)NCc1cccs1)c1cccc(Oc2ccccc2)c1` (stereo unspecified), the IC90 was above 10 µM. In addition, the IC50 (FFLUC_HILL_SLOPE 0.589, FFLUC_R_SQUARED 0.0522, PBLUC_HILL_SLOPE 12.1, PBLUC_R_SQUARED 0.469, read-out: LUCIFERASE INFECTION ASSAY - IC50) is 9.25 µM.

For the compound `COc1cc(-c2cnc3cnc(-c4ccsc4)cn23)cc(OC)c1OC`, the IC90 was determined as 1.45 µM. Further, the IC50 (FFLUC_HILL_SLOPE 0.573, FFLUC_R_SQUARED 0.0155, HEPG2TOX_HILL_SLOPE 1.65, HEPG2TOX_R_SQUARED 0.878, PBLUC_HILL_SLOPE 3.42, PBLUC_R_SQUARED 0.766, read-out: LUCIFERASE INFECTION ASSAY - IC50) turned out to be 0.761 µM.

In the case of `CCc1cccc(CC)c1N1C(=O)/C(=C\c2ccc(C(C)(C)C)cc2)N(C)C1=S`, the IC90 is above 10 µM. For the same compound, where the note is “FFLUC_HILL_SLOPE 0.556, FFLUC_R_SQUARED 0.412, PBLUC_HILL_SLOPE 2.98, PBLUC_R_SQUARED 0.687, read-out: LUCIFERASE INFECTION ASSAY - IC50”, the IC50 turned out to be 5.42 µM.

Take `CCOC(=O)c1c(-c2ccc(OC)cc2)csc1NC(=O)CSc1nc(C)nc2sc3c(c12)CCC3`: the 90% effect concentration (IC90) is above 10 µM. The half-inhibitory concentration (IC50) (FFLUC_HILL_SLOPE 0.459, FFLUC_R_SQUARED 0.138, read-out: LUCIFERASE INFECTION ASSAY - IC50) was above 10 µM.

Take `O=C(Nc1ccc(CN2CCCC2)cc1)c1[nH]nc2ccccc12`: the IC90 was found to be 5.09 µM. Besides, the IC50 (FFLUC_HILL_SLOPE 0.453, FFLUC_R_SQUARED 0.794, PBLUC_HILL_SLOPE 1.12, PBLUC_R_SQUARED 0.946, read-out: LUCIFERASE INFECTION ASSAY - IC50) was 0.718 µM.

For `O=C(Nc1nc(-c2ccccn2)cs1)C1CCCN(C(=O)c2ccc(Cl)cc2)C1` (stereo unspecified), the IC90 was above 10 µM. For the same compound, the IC50 (FFLUC_HILL_SLOPE 0.539, FFLUC_R_SQUARED 0.289, HEPG2TOX_HILL_SLOPE 0.153, HEPG2TOX_R_SQUARED 0.318, read-out: LUCIFERASE INFECTION ASSAY - IC50) was above 10 µM.

On to `COC(=O)[C@@H](NC(=O)Nc1ccc(-c2nc3ccccc3s2)cc1)C(C)C`, for which the IC90 was above 8.61 µM. For the same compound, the IC50 (FFLUC_HILL_SLOPE 0.533, FFLUC_R_SQUARED 0.87, PBLUC_HILL_SLOPE 0.528, PBLUC_R_SQUARED 0.783, read-out: LUCIFERASE INFECTION ASSAY - IC50) stood at 0.264 µM.

Take `COc1cccc(-c2cnc(N)c(-c3ccc(O)c(OC)c3)c2)c1`: the IC90 was 7.28 µM. Moreover, the IC50 (FFLUC_HILL_SLOPE 0.591, FFLUC_R_SQUARED 0.281, PBLUC_HILL_SLOPE 3.73, PBLUC_R_SQUARED 0.478, read-out: LUCIFERASE INFECTION ASSAY - IC50) stood at 4.04 µM.

Take `CSc1sc(-c2n[nH]cc2Br)c2c1C(=O)CC(C)(C)C2`: the IC90 was above 8.89 µM. Moreover, for the setting “FFLUC_HILL_SLOPE 0.501, FFLUC_R_SQUARED 0.129, read-out: LUCIFERASE INFECTION ASSAY - IC50”, the IC50 is above 8.89 µM.

For the compound `Cc1c(C)n(CCCO)c2ncn3nc(-c4ccccc4O)nc3c12`, the concentration for an effect of 90% (IC90) came to 0.862 µM. Moreover, where the note is “FFLUC_HILL_SLOPE 0.508, FFLUC_R_SQUARED 0.752, HEPG2TOX_HILL_SLOPE 10.5, HEPG2TOX_R_SQUARED 0.849, PBLUC_HILL_SLOPE 1, PBLUC_R_SQUARED 0.894, read-out: LUCIFERASE INFECTION ASSAY - IC50”, the IC50 was found to be 0.0964 µM.

As for `Cc1ccc(NS(=O)(=O)c2ccc(C(=O)Nc3ncccc3O)cc2)cc1`, the IC90 turned out to be 0.462 µM. The IC50 (FFLUC_HILL_SLOPE 0.564, FFLUC_R_SQUARED 0.118, HEPG2TOX_HILL_SLOPE 3.99, HEPG2TOX_R_SQUARED 0.784, PBLUC_HILL_SLOPE 9.26, PBLUC_R_SQUARED 0.767, read-out: LUCIFERASE INFECTION ASSAY - IC50) turned out to be 0.364 µM.

In the case of `Cc1oc(-c2ccccc2)nc1C(=O)N(C)CC(=O)Nc1ccc(N2CCOCC2)cc1`, the IC90 was above 10 µM. Further, the IC50 (FFLUC_HILL_SLOPE 0.476, FFLUC_R_SQUARED 0.109, HEPG2TOX_HILL_SLOPE 11.6, HEPG2TOX_R_SQUARED 0.88, read-out: LUCIFERASE INFECTION ASSAY - IC50) was above 10 µM.

On to `Cc1cnc(NC(=O)c2ccc(CN3CCCCC3)cc2)s1`, for which the IC90 was above 10 µM. For the same compound, the IC50 (FFLUC_HILL_SLOPE 0.622, FFLUC_R_SQUARED 0.84, HEPG2TOX_HILL_SLOPE 8.37, HEPG2TOX_R_SQUARED 0.336, PBLUC_HILL_SLOPE 1, PBLUC_R_SQUARED 0.657, read-out: LUCIFERASE INFECTION ASSAY - IC50) is 1.28 µM.

`Clc1ccccc1-c1cnc2sc(NCc3cccs3)nn12`: the IC90 is above 9.51 µM. For the setting “FFLUC_HILL_SLOPE 0.509, FFLUC_R_SQUARED 0.232, read-out: LUCIFERASE INFECTION ASSAY - IC50”, the IC50 was above 9.51 µM.

For `Cn1nc(-c2ccc(-c3ccnc(SCC(=O)c4ccccc4)n3)s2)cc1C(F)(F)F`, the IC90 was above 7.17 µM. Moreover, the IC50 (FFLUC_HILL_SLOPE 0.544, FFLUC_R_SQUARED 0.175, read-out: LUCIFERASE INFECTION ASSAY - IC50) was above 7.17 µM.

Consider `COC(=O)c1cc(C#N)c(Sc2ncc([N+](=O)[O-])s2)nc1C(OC)OC`, for which the IC90 is above 8.32 µM. In addition, the IC50 (FFLUC_HILL_SLOPE 0.469, FFLUC_R_SQUARED 0.297, HEPG2TOX_HILL_SLOPE 12.3, HEPG2TOX_R_SQUARED 0.829, PBLUC_HILL_SLOPE 2.84, PBLUC_R_SQUARED 0.141, read-out: LUCIFERASE INFECTION ASSAY - IC50) was above 8.32 µM.

As to `COc1ccc2c(C(=O)N/N=C/c3cc(Br)c4ccccc4c3O)cccc2c1`, the IC90 was 3.64 µM. For the same compound, for the setting “FFLUC_HILL_SLOPE 0.529, FFLUC_R_SQUARED 0.712, HEPG2TOX_HILL_SLOPE 1.8, HEPG2TOX_R_SQUARED 0.756, PBLUC_HILL_SLOPE 12.3, PBLUC_R_SQUARED 0.402, read-out: LUCIFERASE INFECTION ASSAY - IC50”, the IC50 was determined as 3.05 µM.

Take `C/N=c1\scc(-c2ccco2)n1/N=C/c1sccc1C`: the IC90 stood at 1.19 µM. Moreover, where the note is “FFLUC_HILL_SLOPE 0.471, FFLUC_R_SQUARED 0.601, PBLUC_HILL_SLOPE 1.29, PBLUC_R_SQUARED 0.771, read-out: LUCIFERASE INFECTION ASSAY - IC50”, the IC50 was found to be 0.216 µM.

Take `Cc1c(C)n(CCCO)c2ncn3nc(-c4ccc(N(C)C)cc4)nc3c12`: the IC90 came out at 3.79 µM. Besides, the concentration for half-maximal inhibition (IC50) (FFLUC_HILL_SLOPE 0.464, FFLUC_R_SQUARED 0.882, PBLUC_HILL_SLOPE 0.457, PBLUC_R_SQUARED 0.781, read-out: LUCIFERASE INFECTION ASSAY - IC50) was determined as 0.0311 µM.

As for `Cc1cc(C)c(C#N)c(SCc2nc(-c3ccsc3)no2)n1`, the 90% effect concentration (IC90) was 0.328 µM. Moreover, the IC50 (FFLUC_HILL_SLOPE 0.467, FFLUC_R_SQUARED 0.935, PBLUC_HILL_SLOPE 1.22, PBLUC_R_SQUARED 0.907, read-out: LUCIFERASE INFECTION ASSAY - IC50) stood at 0.0542 µM.

`COc1cccc(C2c3sc(=O)[nH]c3SC3C4CCC(C4)C23)c1O` (stereo unspecified): the IC90 was above 9.13 µM. For the same compound, the IC50 (FFLUC_HILL_SLOPE 0.571, FFLUC_R_SQUARED 0.432, read-out: LUCIFERASE INFECTION ASSAY - IC50) was above 9.13 µM.

Regarding `CC(C)c1nc(N2CCN(C)CC2)c(C#N)c2c1CCCC2`, the IC90 is above 11.1 µM. For the same compound, under “FFLUC_HILL_SLOPE 0.534, FFLUC_R_SQUARED 0.16, read-out: LUCIFERASE INFECTION ASSAY - IC50”, the IC50 is above 11.1 µM.
